Experimental data taken from US7595334B2, “Broadspectrum 2-(substituted-amino)-benzoxazole sulfonamide HIV protease inhibitors” (Tibotec Pharmaceuticals Ltd., priority 2001, dated 2009).

Key:
mock-infected MT4 cells = assay: in vitro
Method: (§1) HIV- or mock-infected MT4 cells were incubated for five days in the presence of various concentrations of the inhibitor. […] Cell viability is measured by measuring the concentration of MTT, a yellow, water soluble tetrazolium dye that is converted to a purple, water insoluble formazan in the mitochondria of living cells only. Upon solubilization of the resulting formazan crystals with isopropanol, the absorbance of the solution is monitored at 540 nm. The values correlate directly to the number of living cells remaining in the culture at the completion of the five day incubation. The inhibitory activity of the compound was monitored on the virus-infected cells and was expressed as EC50 and EC90. These values represent the amount of the compound required to protect 50% and 90%, respectively, of the cells from the cytopathogenic effect of the virus. The toxicity of the compound was measured on the mock-infected cells and was expressed as CC50, which represents the concentration of compound required to inhibit the growth of the cells by 50%. The selectivity index (SI) (ratio CC50/EC50) is an indication of the selectivity of the anti-HIV activity of the inhibitor. Wherever results are reported as e.g. pEC50 or pCC50 values, the result is expressed as the negative logarithm of the result expressed as EC50 or CC50 respectively.
(§2) As a measure of the broad spectrum activity of the present compounds, the fold resistance (FR), defined as FR=EC50(mutant strain)/EC50(HIV-1 strain LAI), was determined.

[1] = test system: HIV strain A (clinically isolated, protease mutations); assay type: cell-based; conditions: FR=EC50(mutant strain A)/EC50(HIV-1 strain LAI)
Method: as §1, §2

[2] = test system: HIV strain B (clinically isolated, protease mutations); assay type: cell-based; conditions: FR=EC50(mutant strain B)/EC50(HIV-1 strain LAI)
Method: as §1, §2

[3] = test system: HIV strain C (clinically isolated, protease mutations); assay type: cell-based; conditions: FR=EC50(mutant strain C)/EC50(HIV-1 strain LAI)
Method: as §1, §2

[4] = test system: HIV strain D (clinically isolated, protease mutations); assay type: cell-based; conditions: FR=EC50(mutant strain D)/EC50(HIV-1 strain LAI)
Method: as §1, §2

[5] = test system: HIV strain E (clinically isolated, protease mutations); assay type: cell-based; conditions: FR=EC50(mutant strain E)/EC50(HIV-1 strain LAI)
Method: as §1, §2

[6] = test system: HIV strain F (clinically isolated, protease mutations); assay type: cell-based; conditions: FR=EC50(mutant strain F)/EC50(HIV-1 strain LAI)
Method: as §1, §2

CC(C)CN(C[C@@H](O)[C@H](Cc1ccccc1)NC(=O)O[C@H]1CO[C@H]2OCC[C@H]21)S(=O)(=O)c1ccc2nc(NCCN(C)C)oc2c1 [Compound 2]
Tox (pCC50) (mock-infected MT4 cells): <4
A (FR) fold resistance [1]: 1.1
B (FR) fold resistance [2]: 0.49
C (FR) fold resistance [3]: 0.59
D (FR) fold resistance [4]: 0.32
E (FR) fold resistance [5]: 0.36
F (FR) fold resistance [6]: 2.7

CC(C)CN(C[C@@H](O)[C@H](Cc1ccccc1)NC(=O)O[C@H]1CO[C@H]2OCC[C@H]21)S(=O)(=O)c1ccc2nc(N(C)CCN3CCCC3)oc2c1 [Compound 8]
Tox (pCC50) (mock-infected MT4 cells): <4
A (FR) fold resistance [1]: 30
B (FR) fold resistance [2]: 5.8
C (FR) fold resistance [3]: 1.7
D (FR) fold resistance [4]: 5.8
F (FR) fold resistance [6]: 58

COC(=O)Nc1nc2ccc(S(=O)(=O)N(CC(C)C)C[C@@H](O)[C@H](Cc3ccccc3)NC(=O)OCc3cncs3)cc2o1 [Compound 9]
Tox (pCC50) (mock-infected MT4 cells): <4
A (FR) fold resistance [1]: 3.5
B (FR) fold resistance [2]: 1.2
C (FR) fold resistance [3]: 1.2
D (FR) fold resistance [4]: 2.7
E (FR) fold resistance [5]: 3.6
F (FR) fold resistance [6]: 14.5

CC(=O)Nc1nc2ccc(S(=O)(=O)N(CC(C)C)C[C@@H](O)[C@H](Cc3ccccc3)NC(=O)OCc3cncs3)cc2o1 [Compound 11]
Tox (pCC50) (mock-infected MT4 cells): <4
A (FR) fold resistance [1]: 42
B (FR) fold resistance [2]: 2.1
C (FR) fold resistance [3]: 2.5
D (FR) fold resistance [4]: 10
E (FR) fold resistance [5]: 4.8
F (FR) fold resistance [6]: 74

CCOC(=O)Nc1nc2ccc(S(=O)(=O)N(CC(C)C)C[C@@H](O)[C@H](Cc3ccccc3)NC(=O)OCc3cncs3)cc2o1 [Compound 12]
Tox (pCC50) (mock-infected MT4 cells): <4
A (FR) fold resistance [1]: 8.5
B (FR) fold resistance [2]: 1.4
C (FR) fold resistance [3]: 2.5
D (FR) fold resistance [4]: 4.8
E (FR) fold resistance [5]: 2.5
F (FR) fold resistance [6]: 15

CC(C)CN(C[C@@H](O)[C@H](Cc1ccccc1)NC(=O)OCc1cncs1)S(=O)(=O)c1ccc2nc(NC(=O)C3CCC(=O)N3)oc2c1 (some centres unmarked) [Compound 13]
Tox (pCC50) (mock-infected MT4 cells): <4
A (FR) fold resistance [1]: 2.3
B (FR) fold resistance [2]: 0.75
C (FR) fold resistance [3]: 0.64
D (FR) fold resistance [4]: 0.91
E (FR) fold resistance [5]: 0.91
F (FR) fold resistance [6]: 5.2

CC(C)CN(C[C@@H](O)[C@H](Cc1ccccc1)NC(=O)OCc1cncs1)S(=O)(=O)c1ccc2nc(NC(=O)c3ccco3)oc2c1 [Compound 14]
Tox (pCC50) (mock-infected MT4 cells): 5.03
A (FR) fold resistance [1]: 5.2
B (FR) fold resistance [2]: 3.8
C (FR) fold resistance [3]: 3.1
D (FR) fold resistance [4]: 3.7
E (FR) fold resistance [5]: 3.1
F (FR) fold resistance [6]: 19

CC(C)CN(C[C@@H](O)[C@H](Cc1ccccc1)NC(=O)OCc1cncs1)S(=O)(=O)c1ccc2nc(NC(=O)C3CCN(C)CC3)oc2c1 [Compound 15]
Tox (pCC50) (mock-infected MT4 cells): <4
A (FR) fold resistance [1]: 2.3
B (FR) fold resistance [2]: 0.81
C (FR) fold resistance [3]: 1.1
D (FR) fold resistance [4]: 1.7
E (FR) fold resistance [5]: 1.5
F (FR) fold resistance [6]: 7.8

CC(C)CN(C[C@@H](O)[C@H](Cc1ccccc1)NC(=O)OCc1cncs1)S(=O)(=O)c1ccc2nc(NC(=O)c3ccccn3)oc2c1 [Compound 16]
Tox (pCC50) (mock-infected MT4 cells): 4.25
A (FR) fold resistance [1]: 3.5
B (FR) fold resistance [2]: 0.72
C (FR) fold resistance [3]: 0.69
D (FR) fold resistance [4]: 3.3
E (FR) fold resistance [5]: 1.1
F (FR) fold resistance [6]: 17

CC(C)CN(C[C@@H](O)[C@H](Cc1ccccc1)NC(=O)OCc1cncs1)S(=O)(=O)c1ccc2nc(NC(=O)c3cccnc3)oc2c1 [Compound 18]
Tox (pCC50) (mock-infected MT4 cells): 4.24
A (FR) fold resistance [1]: 2.6
B (FR) fold resistance [2]: 0.85
C (FR) fold resistance [3]: 1.5
D (FR) fold resistance [4]: 3.0
E (FR) fold resistance [5]: 2.6
F (FR) fold resistance [6]: 13

CC(C)CN(C[C@@H](O)[C@H](Cc1ccccc1)NC(=O)OCc1cncs1)S(=O)(=O)c1ccc2nc(NC(=O)CN(C)C)oc2c1 [Compound 19]
Tox (pCC50) (mock-infected MT4 cells): <4
A (FR) fold resistance [1]: 3.0
B (FR) fold resistance [2]: 0.81
C (FR) fold resistance [3]: 0.91
D (FR) fold resistance [4]: 2.2
F (FR) fold resistance [6]: 17

CC(C)CN(C[C@@H](O)[C@H](Cc1ccccc1)NC(=O)OCc1cncs1)S(=O)(=O)c1ccc2nc(NC(=O)CN(C)CCN3CCCC3)oc2c1 [Compound 24]
Tox (pCC50) (mock-infected MT4 cells): <4
A (FR) fold resistance [1]: 1.9
B (FR) fold resistance [2]: 0.53
C (FR) fold resistance [3]: 1.3
D (FR) fold resistance [4]: 1.6
E (FR) fold resistance [5]: 1.4
F (FR) fold resistance [6]: 6.8

CC(C)CN(C[C@@H](O)[C@H](Cc1ccccc1)NC(=O)OCc1cncs1)S(=O)(=O)c1ccc2nc(NC(=O)CN3CCN(C)CC3)oc2c1 [Compound 25]
Tox (pCC50) (mock-infected MT4 cells): 4.31
A (FR) fold resistance [1]: 3.9
B (FR) fold resistance [2]: 1.3
C (FR) fold resistance [3]: 3.0
D (FR) fold resistance [4]: 3.9
E (FR) fold resistance [5]: 3.9
F (FR) fold resistance [6]: 18

CC(C)CN(C[C@@H](O)[C@H](Cc1ccccc1)NC(=O)OCc1cncs1)S(=O)(=O)c1ccc2nc(N(C)C(=O)c3ccccn3)oc2c1 [Compound 26]
Tox (pCC50) (mock-infected MT4 cells): 4.14
A (FR) fold resistance [1]: 9.3
B (FR) fold resistance [2]: 2.45
C (FR) fold resistance [3]: 3.4
D (FR) fold resistance [4]: 15
E (FR) fold resistance [5]: 11
F (FR) fold resistance [6]: 59

CC(C)CN(C[C@@H](O)[C@H](Cc1ccccc1)NC(=O)OCc1cncs1)S(=O)(=O)c1ccc2nc(N(C)C(=O)C3CCCN(C)C3)oc2c1 (some centres unmarked) [Compound 27]
Tox (pCC50) (mock-infected MT4 cells): <4
A (FR) fold resistance [1]: 4.4
B (FR) fold resistance [2]: 1.00
C (FR) fold resistance [3]: 0.68
D (FR) fold resistance [4]: 2.9
E (FR) fold resistance [5]: 0.85
F (FR) fold resistance [6]: 24

CC(C)CN(C[C@@H](O)[C@H](Cc1ccccc1)NC(=O)OCc1cncs1)S(=O)(=O)c1ccc2nc(N(C)C(=O)C3CCN(C)CC3)oc2c1 [Compound 28]
Tox (pCC50) (mock-infected MT4 cells): <4
A (FR) fold resistance [1]: 4.4
B (FR) fold resistance [2]: 0.89
C (FR) fold resistance [3]: 0.51
D (FR) fold resistance [4]: 2.9
E (FR) fold resistance [5]: 1.9
F (FR) fold resistance [6]: 23

CC(C)CN(C[C@@H](O)[C@H](Cc1ccccc1)NC(=O)OCc1cncs1)S(=O)(=O)c1ccc2nc(N(C)C(=O)c3ccnc(Cl)c3)oc2c1 [Compound 29]
Tox (pCC50) (mock-infected MT4 cells): <4
A (FR) fold resistance [1]: 8.1
B (FR) fold resistance [2]: 1.4
C (FR) fold resistance [3]: 0.79
D (FR) fold resistance [4]: 4.9
E (FR) fold resistance [5]: 0.87
F (FR) fold resistance [6]: 39

CC(C)CN(C[C@@H](O)[C@H](Cc1ccccc1)NC(=O)OCc1cncs1)S(=O)(=O)c1ccc2nc(N(C)C(=O)C3CCC(=O)N3)oc2c1 (some centres unmarked) [Compound 30]
Tox (pCC50) (mock-infected MT4 cells): <4

CC(C)CN(C[C@@H](O)[C@H](Cc1ccccc1)NC(=O)OCc1cncs1)S(=O)(=O)c1ccc2nc(N(C)C(=O)c3ccncc3)oc2c1 [Compound 31]
Tox (pCC50) (mock-infected MT4 cells): <4
A (FR) fold resistance [1]: 9.5
B (FR) fold resistance [2]: 1.3
C (FR) fold resistance [3]: 1.25
D (FR) fold resistance [4]: 7.6
F (FR) fold resistance [6]: 33

CC(C)CN(C[C@@H](O)[C@H](Cc1ccccc1)NC(=O)OCc1cncs1)S(=O)(=O)c1ccc2nc(N(C)C(=O)c3cccnc3)oc2c1 [Compound 32]
Tox (pCC50) (mock-infected MT4 cells): <4
A (FR) fold resistance [1]: 8.3
B (FR) fold resistance [2]: 1.7
C (FR) fold resistance [3]: 1.1
D (FR) fold resistance [4]: 8.1
F (FR) fold resistance [6]: 42

CC(C)CN(C[C@@H](O)[C@H](Cc1ccccc1)NC(=O)OCc1cncs1)S(=O)(=O)c1ccc2nc(NC(=O)C3CCCN3C)oc2c1 (some centres unmarked) [Compound 34]
Tox (pCC50) (mock-infected MT4 cells): 4.25
A (FR) fold resistance [1]: 7.2
B (FR) fold resistance [2]: 1.4
C (FR) fold resistance [3]: 1.7
D (FR) fold resistance [4]: 5.8
E (FR) fold resistance [5]: 2.3
F (FR) fold resistance [6]: 25

CC(C)CN(C[C@@H](O)[C@H](Cc1ccccc1)NC(=O)OCc1cncs1)S(=O)(=O)c1ccc2nc(NC(=O)[C@H]3CCCN3C)oc2c1 [Compound 35]
Tox (pCC50) (mock-infected MT4 cells): 4.26
A (FR) fold resistance [1]: 13
B (FR) fold resistance [2]: 2.3
C (FR) fold resistance [3]: 1.1
D (FR) fold resistance [4]: 3.5
F (FR) fold resistance [6]: 48
